Reference: PMC3865603 (Cancer chemotherapy and pharmacology, 2011)

Legend:
[1] = tested on: patients with advanced solid tumors; experiment: Phase I dose escalation: safety, DLT, MTD; assay type: in vivo, human; settings: for Dyspnea, grade 3: listed as remotely related to study drug
[2] = tested on: advanced or metastatic solid tumors; experiment: Anti-tumor activity; assay type: in vivo, human
plasma proteins = settings: cited from earlier work
[3] = Urinary excretion of KOS-1584 and metabolites; assay type: in vivo, human; settings: MTD level, 0-24 h urine
[4] = tested on: P-gp-overexpressing cell lines; settings: cited from earlier work
[5] = 0.8 mg/m^2 (n = 1), treatment-related
[6] = 1.5 mg/m^2 (n = 4), treatment-related
[7] = 2.5 mg/m^2 (n = 4), treatment-related
[8] = 3.7 mg/m^2 (n = 3), treatment-related
[9] = 5 mg/m^2 (n = 4), treatment-related
[10] = 6.5 mg/m^2 (n = 6), treatment-related
[11] = 8.5 mg/m^2 (n = 3), treatment-related
[12] = 11.3 mg/m^2 (n = 4), treatment-related
[13] = 15 mg/m^2 (n = 4), treatment-related
[14] = 20 mg/m^2 (n = 5), treatment-related
[15] = 27 mg/m^2 (n = 4), treatment-related
[16] = 36 mg/m^2 (n = 16), treatment-related
[17] = 42 mg/m^2 (n = 6), treatment-related
[18] = 48 mg/m^2 (n = 2), treatment-related

## C/C1=C/C[C@@H](/C(C)=C/c2csc(C)n2)OC(=O)C[C@H](O)C(C)(C)C(=O)[C@H](C)[C@@H](O)[C@@H](C)/C=C/C1 [KOS-1584, (E)-9,10-didehydroepothilone D]
[1]; 0.8 mg/m^2 (n = 1)
  Dyspnea, grade 3: 1 no. of patients
[1]; [5]
  Anemia, grade 1/2: 1 no. of patients
  Anorexia, grade 1/2: 1 no. of patients
  Asthenia/fatigue, grade 3: 1 no. of patients
  Constipation, grade 1/2: 1 no. of patients
  Diarrhea, grade 1/2: 1 no. of patients
  Nausea/vomiting, grade 1/2: 1 no. of patients
[1]; [6]
  Anorexia, grade 1/2: 2 no. of patients
  Arthralgia/myalgia, grade 1/2: 1 no. of patients
  Back pain, grade 1/2: 2 no. of patients
  Diarrhea, grade 1/2: 2 no. of patients
  Dyspnea, grade 1/2: 1 no. of patients
  Lymphopenia, grade 1/2: 1 no. of patients
  Nausea/vomiting, grade 1/2: 1 no. of patients
  Peripheral neuropathy, grade 1/2: 2 no. of patients
  Pleural effusion, grade 1/2: 1 no. of patients
[1]; [7]
  Abdominal pain, grade 1/2: 2 no. of patients
  Anorexia, grade 1/2: 2 no. of patients
  Asthenia/fatigue, grade 1/2: 4 no. of patients
  Constipation, grade 1/2: 2 no. of patients
  Diarrhea, grade 1/2: 2 no. of patients
  Dry skin/rash, grade 1/2: 1 no. of patients
  Nausea/vomiting, grade 1/2: 2 no. of patients
  Peripheral neuropathy, grade 1/2: 1 no. of patients
[1]; [8]
  Abdominal pain, grade 1/2: 1 no. of patients
  Anemia, grade 1/2: 1 no. of patients
  Arthralgia/myalgia, grade 1/2: 1 no. of patients
  Asthenia/fatigue, grade 1/2: 1 no. of patients
  Diarrhea, grade 1/2: 2 no. of patients
  Dizziness, grade 1/2: 1 no. of patients
  Nausea/vomiting, grade 1/2: 1 no. of patients
  Peripheral neuropathy, grade 1/2: 1 no. of patients
[1]; [9]
  Anorexia, grade 1/2: 1 no. of patients
  Dizziness, grade 1/2: 1 no. of patients
  Edema, grade 1/2: 1 no. of patients
  Nausea/vomiting, grade 1/2: 1 no. of patients
[1]; 6.5 mg/m^2 (n = 6)
  Dyspnea, grade 3: 1 no. of patients
[1]; [10]
  Anemia, grade 1/2: 1 no. of patients
  Asthenia/fatigue, grade 1/2: 2 no. of patients
  Diarrhea, grade 1/2: 1 no. of patients
  Dizziness, grade 1/2: 2 no. of patients
  Nausea/vomiting, grade 1/2: 1 no. of patients
  Pleural effusion, grade 1/2: 1 no. of patients
[1]; [11]
  Asthenia/fatigue, grade 1/2: 1 no. of patients
  Edema, grade 1/2: 1 no. of patients
  Peripheral neuropathy, grade 1/2: 1 no. of patients
[1]; [12]
  Anorexia, grade 1/2: 1 no. of patients
  Asthenia/fatigue, grade 1/2: 1 no. of patients
  Asthenia/fatigue, grade 3: 1 no. of patients
  Constipation, grade 1/2: 1 no. of patients
  Headache, grade 1/2: 1 no. of patients
  Nausea/vomiting, grade 1/2: 1 no. of patients
[1]; [13]
  Abdominal pain, grade 3: 1 no. of patients
  Anemia, grade 1/2: 1 no. of patients
  Asthenia/fatigue, grade 3: 1 no. of patients
  Diarrhea, grade 1/2: 1 no. of patients
  Edema, grade 1/2: 1 no. of patients
  Nausea/vomiting, grade 1/2: 2 no. of patients
  Peripheral neuropathy, grade 1/2: 1 no. of patients
[1]; [14]
  Alopecia, grade 1/2: 1 no. of patients
  Anemia, grade 1/2: 1 no. of patients
  Anorexia, grade 1/2: 1 no. of patients
  Asthenia/fatigue, grade 1/2: 1 no. of patients
  Constipation, grade 1/2: 1 no. of patients
  Diarrhea, grade 1/2: 1 no. of patients
  Lymphopenia, grade 1/2: 1 no. of patients
  Nausea/vomiting, grade 1/2: 2 no. of patients
  Peripheral neuropathy, grade 1/2: 2 no. of patients
[1]; 27 mg/m^2 (n = 4)
  Dyspnea, grade 3: 1 no. of patients
[1]; [15]
  Alopecia, grade 1/2: 1 no. of patients
  Anemia, grade 1/2: 2 no. of patients
  Anorexia, grade 1/2: 1 no. of patients
  Asthenia/fatigue, grade 1/2: 4 no. of patients
  Back pain, grade 1/2: 1 no. of patients
  Chest pain, grade 1/2: 1 no. of patients
  Constipation, grade 1/2: 1 no. of patients
  Diarrhea, grade 1/2: 1 no. of patients
  Dizziness, grade 1/2: 1 no. of patients
  Dry skin/rash, grade 1/2: 1 no. of patients
  Headache, grade 1/2: 3 no. of patients
  Nausea/vomiting, grade 1/2: 1 no. of patients
  Peripheral neuropathy, grade 1/2: 4 no. of patients
[1]; 36 mg/m^2
  incidence of diarrhea at RP2D, first figure: 31%
  incidence of diarrhea at RP2D, second figure: 6%
[1]; [16]
  Alopecia, grade 1/2: 4 no. of patients
  Anemia, grade 1/2: 2 no. of patients
  Anorexia, grade 1/2: 3 no. of patients
  Arthralgia/myalgia, grade 3: 1 no. of patients
  Asthenia/fatigue, grade 3: 1 no. of patients
  Back pain, grade 1/2: 1 no. of patients
  Back pain, grade 3: 1 no. of patients
  Chest pain, grade 1/2: 2 no. of patients
  Chest pain, grade 3: 1 no. of patients
  Constipation, grade 1/2: 1 no. of patients
  Diarrhea, grade 1/2: 4 no. of patients
  Diarrhea, grade 3: 1 no. of patients
  Dry skin/rash, grade 1/2: 1 no. of patients
  Edema, grade 1/2: 2 no. of patients
  Headache, grade 1/2: 1 no. of patients
  Peripheral neuropathy, grade 1/2: 11 no. of patients
  Thrombocytopenia, grade 1/2: 1 no. of patients
[1]; [17]
  Abdominal pain, grade 3: 2 no. of patients
  Alopecia, grade 1/2: 2 no. of patients
  Anemia, grade 3: 1 no. of patients
  Anorexia, grade 1/2: 2 no. of patients
  Asthenia/fatigue, grade 1/2: 3 no. of patients
  Asthenia/fatigue, grade 3: 1 no. of patients
  Constipation, grade 3: 1 no. of patients
  Diarrhea, grade 1/2: 3 no. of patients
  Diarrhea, grade 3: 2 no. of patients
  Dizziness, grade 1/2: 2 no. of patients
  Lymphopenia, grade 3: 1 no. of patients
  Nausea/vomiting, grade 1/2: 3 no. of patients
  Neutropenia, grade 3: 1 no. of patients
  Peripheral neuropathy, grade 1/2: 4 no. of patients
  Peripheral neuropathy, grade 3: 2 no. of patients
  Thrombocytopenia, grade 1/2: 1 no. of patients
[1]; [18]
  Anorexia, grade 1/2: 1 no. of patients
  Arthralgia/myalgia, grade 3: 1 no. of patients
  Asthenia/fatigue, grade 1/2: 1 no. of patients
  Back pain, grade 3: 1 no. of patients
  Nausea/vomiting, grade 3: 1 no. of patients
  Peripheral neuropathy, grade 3: 1 no. of patients
[1]; RP2D 36 mg/m^2
  frequency of all-grade peripheral neuropathy: 69%
  frequency of grade ≥3 peripheral neuropathy: 0%
[1]; all cohorts
  patients who discontinued therapy due to adverse effects: Five
  patients with positive FOBT or hematochezia: Five
[1]; heavily pretreated patients
  myelosuppression: very low incidence of myelosuppression
[1]; iv every 3 weeks
  recommended phase II dose (RP2D): 36 mg/m^2
[1]; iv over 3 h every 3 weeks
  maximum tolerated dose (MTD): 36 mg/m^2
[1]; no routine premedication
  hypersensitivity reactions: not associated with any hypersensitivity reactions
[2]; 66 patients
  patients with durable SD of ≥3 months: 13 patients
[2]; 66 patients, 0.8-48 mg/m^2
  patients with objective partial response (PR): Two
[2]; all patients
  disease control rate (CR + PR + SD): 39%
Plasma proteins
  bound to plasma proteins: 97%
[3]
  Urinary excretion of unchanged KOS-1584: < 10 % of drug-related materials
[4]
  potency relative to paclitaxel: more potent than paclitaxel
